For 85 compounds, melting point results are on record in a melting point compilation (Tetko et al.).

Structures are written as SMILES.

Take `O=C1CCC(O)(c2ccccc2)CC1`: the melting point lay in the range of 126 to 128 °C. The figure for `CCOCCCNC(=S)NCc1ccc(OC)cc1` is 39 to 41 °C; for `N#Cc1cccc(C(F)(F)F)n1` it is 36 to 38 °C; for `O=C(O)C=NNc1ccc(F)cc1` it is 87 to 89 °C. Then `CN(CC(=O)O)C1CCCC1O` (stereo not given), with 150 to 152 °C; and `NC(=O)c1ccc(-c2nc(CCl)cs2)cc1`, with 177 to 179 °C.

`CCOc1ccc(-c2nn(-c3ccccc3)cc2C=O)cc1Cl` yielded a melting point of 100 to 102 °C. The figure for `O=C(O)c1cccc(Oc2nccs2)c1` is 102 to 104 °C; for `NCCNC(=O)c1ccc(Br)cc1` it is 38 to 40 °C. The figure for `COc1ccc(CNc2nnc(S)s2)cc1` is 137 to 139 °C; for `CC(N)(C(=O)O)c1ccc(Cl)cc1` (stereo not given) it is 297 to 299 °C; for `Cc1ccc(-c2noc(CC#N)n2)cc1` it is 56 to 58 °C. Then `O=C(O)CNS(=O)(=O)c1ccc(Cl)c([N+](=O)[O-])c1`, with 150 to 152 °C; and `Cc1c(Br)cc(S(=O)(=O)Cl)cc1[N+](=O)[O-]`, with 122 to 124 °C; and `Nc1cnc(C2CC2)nc1`, with 169 to 171 °C. `NNC(=O)CC1CC1` had a melting point of 89 to 91 °C.

Turning to `CC(=O)N(c1cccc(C)c1)c1nc(CCl)cs1`, the melting point was 117 to 119 °C.

Take `O=C(O)c1cc(C(F)(F)F)ccc1SC1CCCC1`: the melting point was 174 to 176 °C. Then `COc1ccc(C(C)=O)cc1CC#N`, with 111 to 113 °C; and `Cc1cc(Br)cc2cc(C(=O)C(C)C)oc12`, with 69 to 71 °C. Then `CC(C)c1n[nH]c(C(=O)O)c1Br`, with 195 to 197 °C; and `COC(=O)C(=O)CC(=O)c1cccc(Cl)c1`, with 29 to 31 °C.

For `C=CCNC(=O)c1nc(C(=O)O)cs1`, the melting point is 147 to 149 °C. The figure for `N#Cc1cccc(OCC(F)F)n1` is 49 to 51 °C; for `CN(C)c1ccnc(N)c1` it is 113 to 115 °C. The figure for `Cc1cc(Cl)ncc1O` is 168 to 170 °C; for `O=C(O)c1cc(C2CC2)nc2ccc(F)cc12` it is 196 to 198 °C.

Compound `O=C(O)C1CCN(S(=O)(=O)Cc2ccccc2)CC1` returned a melting point of 191 to 193 °C. Then `Cn1c(S)nnc1-c1ccc(Cl)cc1`, with 113 to 115 °C; and `CCCc1c(C(=O)O)cnn1-c1cccc(F)c1`, with 97 to 99 °C; and `COc1cc(N)c(O)cc1[N+](=O)[O-]`, with 149 to 151 °C. In the case of `Cc1ccc(C(=O)O)cc1NC(=O)Cc1ccncc1`, the melting point is 294 to 296 °C. Then `Cc1nc(=O)c2cnn(-c3ccc([N+](=O)[O-])cc3)c2[nH]1`, with 341 to 343 °C; and `CC(N)C(=O)Nc1ccc(Cl)cc1` (stereo not given), with 84 to 86 °C; and `CC(C)(C)c1ccc(C(=O)NCCC(=O)O)cc1`, with 129 to 131 °C. Then `Cc1[nH]c(C(=O)O)c(C)c1S(N)(=O)=O`, with 214 to 216 °C; and `CC1C=CC2C(=O)N(Cc3ccccc3)C(=O)C2C1C(=O)O` (stereo not given), with 204 to 206 °C. The figure for `COc1ccc(C(N)c2ccccc2OC)cc1` (stereo not given) is 58 to 60 °C. `Cn1cc(Nc2ccc(=O)n(C)c2)ccc1=O` yielded a melting point of 270 to 272 °C. The figure for `CCc1noc(CC)c1CC(=O)O` is 73 to 75 °C; for `O=S(=O)(c1cccc(-c2nnc(S)o2)c1)N1CCCCC1` it is 205 to 207 °C. The figure for `Cc1ccc(F)c2c1NC(=O)C2=O` is 227 to 229 °C; for `Nc1ccc(SCCCO)cc1` it is 62 to 64 °C.

`Nc1ccc(OCC(F)(F)F)c(C(=O)O)c1`: the melting point fell in the range of 190 to 192 °C. For the compound `CCc1c(C(=O)O)cnn1-c1ccccc1`, the melting point is 159 to 161 °C. The figure for `COC1(OC)C2(Cl)C3C(=O)C4C5C(=O)C3C1(Cl)C5(Cl)C42Cl` (stereo not given) is 155 to 157 °C.

As to `Cc1cc(N)cc2[nH]ncc12`, the melting point lay within 179 to 181 °C. In turn, `Cc1ccc(-n2cc(SC(=O)N(C)C)cn2)cc1` had a melting point of 95 to 97 °C. The figure for `O=C(O)c1ccc(-c2ccc(F)cc2)cc1F` is 237 to 239 °C.

With `Cn1ncc(C(=O)O)c1N`, the melting point was 139 to 141 °C. Then `CCc1ccc(N(C(C)=O)c2nc(CCl)cs2)cc1`, with 195 to 197 °C; and `O=C(CC1CCCC1)c1ccc(Oc2ccccc2)cc1`, with 30 to 32 °C; and `FC(F)c1nnc2ccc(Cl)nn12`, with 101 to 103 °C. The figure for `NC(=O)NC1CCCC1` is 192 to 194 °C. The figure for `Cc1cc2nc(Cl)cc(=O)n2o1` is 203 to 204 °C.

In turn, `Nc1ccc(F)c(N2CCS(=O)(=O)CC2)c1` registered a melting point of 181 to 183 °C. Then `CC(Oc1ccc(C#N)cc1)C(=O)NN` (stereo not given), with 129 to 131 °C; and `O=C1CCCOc2c1ccc(Cl)c2Cl`, with 103 to 105 °C. The figure for `CC(=O)N(c1ccc(C(F)(F)F)cc1)c1nc(CCl)cs1` is 115 to 117 °C. Consider `Cc1nc(S)c2c(=O)n(C)c(=O)n(CC(C)C)c2n1`, for which the melting point was 172 to 174 °C. The figure for `N#Cc1cccc(-n2cccn2)n1` is 116 to 118 °C. The figure for `O=[N+]([O-])c1ccc(CO)c(Br)c1` is 81 to 83 °C; for `Oc1ccccc1CNC1CCCCC1` it is 61 to 63 °C. The figure for `O=C(O)c1ccc(CN2CCc3ccccc32)cc1` is 182 to 184 °C; for `COc1ccc2nc(CCl)[nH]c2n1` it is 151 to 153 °C; for `O=C(O)C#Cc1ccc(F)cc1F` it is 170 to 172 °C.

Regarding `ON=Cc1ccc(OCc2ccccn2)cc1`, the melting point was 154 to 156 °C.

For the compound `Brc1ncn2ccccc12`, the melting point fell in the range of 77 to 79 °C. The figure for `CC(C)(C)OC(=O)c1cc(C(=O)O)nn1-c1ccccc1` is 259 to 261 °C.

Regarding `COc1cc(-c2noc(CCl)n2)ccc1OC(F)F`, the melting point fell in the range of 46 to 50 °C.

`COC(=O)c1sc(N)nc1C(C)(C)C` registered a melting point of 158 to 160 °C.

The compound `N#Cc1ccc(S(=O)(=O)N2CCC(C(=O)O)CC2)cc1` had a melting point of 175 to 177 °C. Then `CC(C1CC2CCC1C2)n1c(N)cc(=O)[nH]c1=O` (stereo not given), with 248 to 250 °C; and `Nc1cccc(NC(=O)c2cccc(C(F)(F)F)c2)c1`, with 134 to 136 °C; and `Clc1nccc(OCc2ccccc2)n1`, with 49 to 51 °C. As for `N#CCCN1CCS1(=O)=O`, the melting point is 52 to 54 °C. Then `Nc1cccc(CN2C(=O)CNC2=O)c1`, with 159 to 161 °C; and `O=S(=O)(Nc1nccs1)c1ccccc1`, with 169 to 171 °C. The figure for `NNC(=O)C1COCCO1` (stereo not given) is 106 to 108 °C; for `O=[N+]([O-])c1ccc2[nH]c3c(c2c1)CCCC3` it is 172 to 174 °C.

`Cc1csc(C2(O)C(=O)N(Cc3ccccc3)CC2C(=O)O)n1` (stereo not given) showed a melting point of 109 to 111 °C. Then `O=C(O)c1cccc(S(=O)(=O)Nc2ccccc2-c2ccccc2)c1`, with 164 to 166 °C; and `COc1c(C#N)cnc2ccccc12`, with 106 to 108 °C; and `Clc1ccc2oc(C3CCNCC3)nc2c1`, with 86 to 88 °C. In the case of `N#CCC(=O)c1ccc(Cl)cc1Cl`, the melting point was 62 to 64 °C.

Usually melting point stands for the temperature, or range, at which the solid turns liquid.
